Structures can show the parent of a compound that is named as a salt. Where two headings read alike, the source gives them in different places.
Assays:
[1] = dog, in vivo; for AUD0. / Cmax / Tmax / t½: po; for Cmax / Tmax / t½: 200 nmol/kg
Description: Beagle dogs were fasted overnight prior to dosing but were permitted free access to water. Each of the prodrugs was administered to a group of three animals at a dose of 200 nmol/kg. The formulation was adminstered by oral gavage. The prodrugs were prepared as 200 nmol/ml (1 ml/kg) solutions in normal saline. Blood samples from a jugular vein of each dog prior to dosing and 0.17, 0.33, 0.5, 0.75, 1, 1.5, 2, 3, 4, 6 and 8 hours after drug administration.

[2] = molecular target: T1, neuronal nicotinic acetylcholine receptors (Rattus norvegicus, UniProt P09483+P12390); experiment: [3H]-cytisine binding to neuronal nicotinic acetylcholine receptors, whole rat brain membranes
T1 construct: crude synaptic membrane preparations from whole rat brain; from tissue; host or cells: whole rat brain, crude synaptic membranes
Description: Protocol for Determination of Nicotinic Acetylcholine Channel Receptor Binding Potencies of Ligands
Binding of [^3H]-cytisine ([^3H]-CYT) to neuronal nicotinic acetylcholine receptors was accomplished using crude synaptic membrane preparations from whole rat brain (Pabreza et al., Molecular Pharmacol., 1990, 39:9). Washed membranes were stored at −80° C. prior to use. Frozen aliquots were slowly thawed and resuspended in 20 volumes of buffer (containing: 120 mM NaCl, 5 mM KCl, 2 mM MgCl2, 2 mM CaCl2 and 50 mM Tris-Cl, pH 7.4 @4° C.). After centrifuging at 20,000×g for 15 minutes, the pellets were resuspended in 30 volumes of buffer. Homogenate (containing 125-150 μg protein) was added to triplicate tubes containing concentrations of test compound and [^3H]-CYT (1.25 nM) in a final volume of 500 μL. Samples were incubated for 60 minutes at 4° C., then rapidly filtered through Whatman GF/B filters presoaked in 0.5% polyethyleneimine using 3×4 mL of ice-cold buffer. The filters are counted in 4 mL of Ecolume® (ICN). Nonspecific binding was determined in the presence of 10 μM (−)-nicotine and values were expressed as a percentage of total binding.

mice = experiment: Mouse Hot Plate Paradigm; format: in vivo; set-up: key to MED Hot plate model (μmol/kg, i.p.): NS = no significant effect observed relative to saline controls at the doses tested; details: 30 minutes prior to testing, 55° C.; for minimal effective dose: ip, 0.5 h, i.p., read-out: MED Hot plate model (μmol/kg, i.p.)
[3] = [3H]-cytisine 1.25 nM, whole rat brain membranes, read-out: [3H] CYT Ki

T1 sequence (P09483 31-630): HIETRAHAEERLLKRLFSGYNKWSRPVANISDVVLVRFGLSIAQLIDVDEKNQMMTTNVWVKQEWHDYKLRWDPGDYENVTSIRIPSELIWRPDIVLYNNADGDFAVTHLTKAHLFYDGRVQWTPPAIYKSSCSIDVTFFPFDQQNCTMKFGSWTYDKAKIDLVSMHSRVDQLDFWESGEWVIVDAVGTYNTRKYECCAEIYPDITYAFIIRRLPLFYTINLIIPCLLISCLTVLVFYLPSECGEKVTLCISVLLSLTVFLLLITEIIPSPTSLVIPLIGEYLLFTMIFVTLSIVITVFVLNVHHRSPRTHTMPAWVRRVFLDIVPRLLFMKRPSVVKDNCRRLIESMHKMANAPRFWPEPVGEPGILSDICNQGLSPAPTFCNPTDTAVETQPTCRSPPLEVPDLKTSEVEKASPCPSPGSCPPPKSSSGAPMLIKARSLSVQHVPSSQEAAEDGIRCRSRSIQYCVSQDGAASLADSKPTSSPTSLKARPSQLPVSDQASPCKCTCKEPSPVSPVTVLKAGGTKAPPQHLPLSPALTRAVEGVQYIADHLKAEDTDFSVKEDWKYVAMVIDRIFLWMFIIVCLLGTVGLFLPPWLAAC
T1 sequence (P12390 25-500): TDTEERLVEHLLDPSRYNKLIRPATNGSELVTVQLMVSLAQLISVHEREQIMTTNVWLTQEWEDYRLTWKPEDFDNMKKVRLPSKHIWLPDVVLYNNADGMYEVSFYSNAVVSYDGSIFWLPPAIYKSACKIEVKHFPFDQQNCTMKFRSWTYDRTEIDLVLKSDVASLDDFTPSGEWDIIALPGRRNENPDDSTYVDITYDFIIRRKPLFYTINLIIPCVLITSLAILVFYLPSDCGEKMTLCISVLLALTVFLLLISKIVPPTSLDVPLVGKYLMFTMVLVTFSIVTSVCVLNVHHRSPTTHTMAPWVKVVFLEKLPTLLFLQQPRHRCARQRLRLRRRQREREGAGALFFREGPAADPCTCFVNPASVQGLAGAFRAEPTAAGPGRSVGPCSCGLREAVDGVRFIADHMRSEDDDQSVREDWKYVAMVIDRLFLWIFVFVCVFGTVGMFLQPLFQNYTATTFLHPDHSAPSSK

Question: Which results are given for `COC(=O)c1ccc(C(=O)N2CC[C@@H]2COc2ccc(F)nc2)cc1` [4-MeO2CC6H4CO]?
Answer: F* (%) efficiency of conversion [1]: 61.2%; AUD0. [1]: 42.37 ng·h/mL; Cmax [1]: 10.31 ng/mL; Tmax [1]: 0.8 h; t½ [1]: 1.8 h

Question: For `O=C(c1ccc(Cl)cc1)N1CC[C@@H]1COc1ccc(F)nc1` [Example 4-ClC6H4CO], which “F* (%) efficiency of conversion” value [1] is on record?
Answer: Its value is 26.9%.

Question: What about the “AUD0.” value [1] of the same compound?
Answer: The value was 18.61 ng·h/mL.

Question: And the “Cmax” value [1]?
Answer: Its value is 4.54 ng/mL.

Question: What about the “Tmax” value [1] of the same compound?
Answer: Its value is 0.8 h.

Question: And the “t½” value [1]?
Answer: Its value is 2.5 h.

Question: Which “F* (%) efficiency of conversion” value [1] does the source give for `O=C(c1ccc(F)cc1)N1CC[C@@H]1COc1ccc(F)nc1` [Example 4-FC6H4CO] here?
Answer: The value was 13.5%.

Question: And the “AUD0.” value [1]?
Answer: Its value is 9.35 ng·h/mL.

Question: And the “Cmax” value [1]?
Answer: Its value is 3.25 ng/mL.

Question: And the “Tmax” value [1]?
Answer: Its value is 0.8 h.

Question: What about the “t½” value [1] of the same compound?
Answer: The value was 1.6 h.

Question: Which “F* (%) efficiency of conversion” value [1] does the source give for `Cc1ccc(C(=O)N2CC[C@@H]2COc2ccc(F)nc2)cc1` [Example 4-MeC6H4CO] here?
Answer: The value was 43.1%.

Question: And the “AUD0.” value [1]?
Answer: The value was 29.85 ng·h/mL.

Question: And the “Cmax” value [1]?
Answer: The value was 7.05 ng/mL.

Question: What about the “Tmax” value [1] of the same compound?
Answer: The value was 0.8 h.

Question: And the “t½” value [1]?
Answer: Its value is 2.4 h.

Question: With `COc1ccc(C(=O)N2CC[C@@H]2COc2ccc(F)nc2)cc1` [Example 4-MeOC6H4CO] as the compound, how does the “F* (%) efficiency of conversion” value [1] read?
Answer: The value was 37.7%.

Question: And the “AUD0.” value [1]?
Answer: The value was 26.09 ng·h/mL.

Question: And the “Cmax” value [1]?
Answer: The value was 7.43 ng/mL.

Question: What about the “Tmax” value [1] of the same compound?
Answer: Its value is 0.8 h.

Question: What about the “t½” value [1] of the same compound?
Answer: Its value is 2.0 h.

Question: What does the source list for `O=C(c1ccc([N+](=O)[O-])cc1)N1CC[C@@H]1COc1ccc(F)nc1` [Example 4-NO2C6H4CO]?
Answer: F* (%) efficiency of conversion [1]: 27.1%; AUD0. [1]: 18.76 ng·h/mL; Cmax [1]: 6.01 ng/mL; Tmax [1]: 0.8 h; t½ [1]: 1.9 h

Question: With `Cl.Cl.c1cncc(OC[C@H]2CCN2)c1` [Example 6, (R)-3-(2-Azetidinylmethyloxy)pyridine dihydrochloride] as the compound, how does the Ki [2] read?
Answer: The Ki was 40 pM.

Question: What about the “MED Hot plate model (μmol/kg, i.p.)” value (mice) of the same compound?
Answer: The value was “NS”.

Question: For `c1cncc(OC[C@@H]2CCN2)c1` [Example 7, (S)-3-(2-Azetidinylmethyloxy)pyridine dihydrochloride], which Ki [2] is on record?
Answer: The Ki was 40 pM.

Question: What about the minimal effective dose (mice) of the same compound?
Answer: Its minimal effective dose is 6.2 µmol/kg.

Question: Which Ki [2, 3] does the source give for `Brc1cncc(OC[C@@H]2CCN2)c1` [Example 12, 5-((2S)-Azetidinylmethyloxy)-3-bromopyridine dihydrochloride] here?
Answer: The Ki was 260 pM.

Question: And the “MED Hot plate model (μmol/kg, i.p.)” value (mice)?
Answer: The value was “NS”.

Question: With `Cc1ccc(OC[C@@H]2CCN2)cn1` [Example 20, 5-((2S)-Azetidinylmethyloxy)-2-methylpyridine dihydrochloride] as the compound, how does the Ki [2, 3] read?
Answer: The Ki was 60 pM.

Question: And the minimal effective dose (mice)?
Answer: Its minimal effective dose is 0.62 µmol/kg.

Question: For `Clc1cncc(OC[C@@H]2CCN2)c1` [Example 21, 5-((2S)-Azetidinylmethyloxy)-3-chloropyridine dihydrochloride], which Ki [2, 3] is on record?
Answer: The Ki was 40 pM.

Question: What about the “MED Hot plate model (μmol/kg, i.p.)” value (mice) of the same compound?
Answer: Its value is “NS”.

Question: With `C=Cc1cncc(OC[C@@H]2CCN2)c1` [Example 22, 5-Vinyl-3-((2S)-Azetidinylmethyloxy)lpyridine dihydrochloride] as the compound, how does the Ki [2, 3] read?
Answer: Its Ki is 970 pM.

Question: For `CCc1cncc(OC[C@@H]2CCN2)c1` [Example 23, 5-Ethyl-3-((2S)-Azetidinylmethyloxy)lpyridine hydrochloride], which Ki [2, 3] is on record?
Answer: Its Ki is 110 pM.

Question: What about the “MED Hot plate model (μmol/kg, i.p.)” value (mice) of the same compound?
Answer: Its value is “NS”.

Question: With `CCCc1cncc(OC[C@@H]2CCN2)c1` [Example 24, 5-Propyl-3-((2S)-azetidinylmethyloxy)lpyridine hydrochloride] as the compound, how does the Ki [2, 3] read?
Answer: The Ki was 50 pM.

Question: And the minimal effective dose (mice)?
Answer: Its minimal effective dose is 62 µmol/kg.

Question: With `Cc1cc(OC[C@@H]2CCN2)cnc1Cl` [Example 25, 2-Chloro-3-methyl-5-(2-(S)-azetidinylmethoxy)pyridine citrate] as the compound, how does the Ki [2, 3] read?
Answer: The Ki was 50 pM.

Question: And the minimal effective dose (mice)?
Answer: Its minimal effective dose is 0.062 µmol/kg.

Question: With `C=Cc1cc(OC[C@@H]2CCN2)cnc1Cl` [Example 26, 2-Chloro-3-vinyl-5-((2S)-azetidinylmethoxy)pyridine hydrochloride] as the compound, how does the Ki [2, 3] read?
Answer: Its Ki is 240 pM.

Question: And the minimal effective dose (mice)?
Answer: The minimal effective dose was 1.9 µmol/kg.

Question: Which Ki [2, 3] does the source give for `CCc1cc(OC[C@@H]2CCN2)cnc1Cl` [Example 27, 2-Chloro-3-ethyl-5-((2S)-azetidinylmethoxy)pyridine hydrochloride] here?
Answer: The Ki was 40 pM.

Question: What about the “MED Hot plate model (μmol/kg, i.p.)” value (mice) of the same compound?
Answer: Its value is “NS”.

Question: For `CCCc1cc(OC[C@@H]2CCN2)cnc1Cl` [Example 28, 2-Chloro-3-propyl-5-((2S)-azetidinylmethoxy)pyridine hydrochloride], which Ki [2, 3] is on record?
Answer: Its Ki is 30 pM.

Question: And the “MED Hot plate model (μmol/kg, i.p.)” value (mice)?
Answer: Its value is “NS”.

Question: Which Ki [2, 3] does the source give for `Fc1ncc(OCC2CCN2)cc1Cl` (centres unmarked) [Example 33, 5-((29)-azetidinylmethoxy)-3-chloro-2-fluoropyridine tosylate] here?
Answer: The Ki was 40 pM.

Question: With `Clc1ncccc1OC[C@H]1CCN1` [Example 97, 2-Chloro-3-(2-(R)-azetidinylmethoxy)pyridine tosylate] as the compound, how does the Ki [2, 3] read?
Answer: Its Ki is 85000 pM.

Question: Which Ki [2, 3] does the source give for `CN1CC[C@H]1COc1ccc(C(F)F)nc1` [Example 113, 6-Difluoromethyl-3-((1-methyl-2-(S)-azetidinyl)methoxy)pyridine citrate] here?
Answer: The Ki was 170 pM.

Question: With `Clc1cncc(OC[C@H]2CCN2)c1` [Example 114, 3-(2-(R)-Azetidinylmethoxy)-5-chloropyridine tosylate] as the compound, how does the Ki [2, 3] read?
Answer: The Ki was 120 pM.

Question: With `Cc1ccc(OC[C@H]2CCN2)cn1` [Example 115, 6-Methyl-3-(2-(R)-azetidinylmethoxy)pyridine] as the compound, how does the Ki [2, 3] read?
Answer: Its Ki is 70 pM.

Question: For `Fc1ccc(OC[C@@H]2CCN2)c(F)n1` [Example 116, 2.6-Difluoro-3-(2-(S)-azetidinylmethoxy)pyridine tosylate], which Ki [2, 3] is on record?
Answer: Its Ki is 340 pM.

Question: For `Cc1ccc(OC[C@@H]2CCN2)c(F)n1` [Example 117, 2-Fluoro-6-methyl-3-(2-(S)-azetidinylmethoxy)pyridine tosylate], which Ki [2, 3] is on record?
Answer: Its Ki is 170 pM.

Question: With `Cc1ccc(OC[C@H]2CCN2)c(F)n1` [Example 118, 2-Fluoro-6-methyl-3-(2-(R)-azetidinylmethoxy)pyridine tosylate] as the compound, how does the Ki [2, 3] read?
Answer: The Ki was 4800 pM.

Question: With `CCOc1cncc(OC[C@@H]2CCN2)c1` [Example 120, 5-Ethoxy-3-(2-(S)-azetidinylmethoxy)pyridine tosylate] as the compound, how does the Ki [2, 3] read?
Answer: Its Ki is 40 pM.

Question: With `Clc1ncccc1OC[C@@H]1CCN1` [Example 121, 2-Chloro-3-(2-(S)-azetidinylmethoxy)pyridine hydrochloride] as the compound, how does the Ki [2, 3] read?
Answer: The Ki was 2300 pM.

Question: Which Ki [2, 3] does the source give for `N#Cc1ccc(OC[C@@H]2CCN2)cn1` [Example 123, 6-Cyano-3-(2(S)-azetidinylmethoxy)pyridine hydrochloride] here?
Answer: Its Ki is 1900 pM.

Question: With `Cc1ncc(OC[C@H]2CCN2)cc1Br` [Example 124, 3-(2-(R)-azetidinylmethoxy)-5-bromo-6-methylpyridine tosylate] as the compound, how does the Ki [2, 3] read?
Answer: Its Ki is 30 pM.

Question: With `Fc1ncc(OC[C@H]2CCN2)cc1Br` [Example 125, 5-bromo-6-fluoro-3-(2-(R)-azetidinylmethoxy)pyridine] as the compound, how does the Ki [2] read?
Answer: The Ki was 40 pM.

Question: With `CCc1cc(OC[C@@H]2CCN2)cnc1F` [Example 126, 5-ethyl-6-fluoro-3-(2-(S)-azetidinylmethoxy)pyridine] as the compound, how does the Ki [2, 3] read?
Answer: The Ki was 70 pM.

Question: Which Ki [2] does the source give for `Cc1cc(OC[C@H]2CCN2)cnc1Cl` [Example 127, 2-Chloro-3-methyl-5-(2-(R)--azetidinylmethoxy)pyridine citrate] here?
Answer: Its Ki is 60 pM.

Question: For `Brc1ccc(OC[C@H]2CCN2)cn1` [Example 128, 5-(2-(R)-azetidinylmethoxy)-2-bromo-pyridine tosylate], which Ki [2, 3] is on record?
Answer: Its Ki is 170 pM.

Question: For `C=Cc1cc(OC[C@H]2CCN2)cnc1F` [Example 129, 5-((2R)-Azetidinylmethoxy)-2-fluoro-3-vinylpyridine tosylate], which Ki [2, 3] is on record?
Answer: Its Ki is 90 pM.

Question: With `C=CCc1cncc(OC[C@@H]2CCN2)c1` [Example 130, 3-(2-(S)-azetidinylmethoxy)-5-(3-propenyl)pyridine hydrochloride] as the compound, how does the Ki [2, 3] read?
Answer: The Ki was 40 pM.

Question: For `C=Cc1cc(OC[C@@H]2CCN2)cnc1F` [Example 131, 5-(2-(S)-Azetidinylmethoxy)-3-ethenyl-2-fluoropyridine tosylate], which Ki [2, 3] is on record?
Answer: The Ki was 130 pM.

Question: What does the source list for `O=C(c1ccccc1)N1CC[C@@H]1COc1ccc(F)nc1` [PhCO]?
Answer: F* (%) efficiency of conversion [1]: 27.3%; AUD0. [1]: 18.89 ng·h/mL; Cmax [1]: 6.31 ng/mL; Tmax [1]: 0.6 h; t½ [1]: 1.8 h
